Data from patent publication US9981987B2, “Tricyclic heterocyclic compounds as phosphoinositide 3-kinase inhibitors” (Karus Therapeutics Limited, priority 2014, dated 2018).

Columns and labels:
[1] = Rodent pharmacokinetics, male CD1 mouse, plasma PK; format: in vivo; settings: for clearance / AUC / AUC(0-inf) / AUC(0-t) / Cmax / Vd / half-life: male, CD1, mouse
Procedure: Formulation: 10% DMSO, 90% Saline Dosing: 10 mg/kg P.O. and 5 mg/kg I.V. Plasma PK Summary:
Formulation: 10% DMSO, 90% Saline
Dosing: 10 mg/kg P.O. and 5 mg/kg I.V.

[2] = system: PI3K isoforms; experiment: HTRF biochemical assay, fold selectivity between PI3K isoforms; settings: isoform selectivity
Source text: (§1) Fold form selectivity inhibition data against PI3K isoforms, as determined using a HTRF biochemical assay, is listed below.

[3] = Rodent pharmacokinetics, male Balb/c mouse, plasma PK; format: in vivo; settings: for clearance: male, Balb/c, mouse, iv; for clearance / AUC(0-inf) / AUC(0-t) / Cmax / half-life / Vd / Tmax / bioavailability: plasma; for Vd: read-out: Vss
Procedure: Animals in Group 1 were administered intravenously with Example B solution formulation in 20% Propylene Glycol, 50% of PEG 400 and 30% of (20% HPβCD in water) via tail vein at a dose of 3 mg/kg.
Animals in Group 2 were administered with oral solution formulation of Example B in 20% Propylene Glycol, 50% of PEG 400 and 30% of (20% HPβCD in water) at a dose of 10 mg/kg;
Dosing: 10 mg/kg P.O. and 3 mg/kg I.V.
Animals in Group 1 were administered intravenously with Example G solution formulation in 5% NMP, 5% solutol HS-15 in 90% HPβCD solution (20% HPβCD in RO water) at 3 mg/kg dose.
Animals in Group 2 were administered orally with 10 mg/kg solution formulation of Example G in 5% NMP, 5% solutol HS-15 in 90% HPβCD solution (20% HPβCD in RO water)

[4] = biological target: PI3K p110α (Homo sapiens, UniProt P42336); experiment: HTRF biochemical assay, PI3K p110α
Sequence of PI3K p110α (P42336 whole entry): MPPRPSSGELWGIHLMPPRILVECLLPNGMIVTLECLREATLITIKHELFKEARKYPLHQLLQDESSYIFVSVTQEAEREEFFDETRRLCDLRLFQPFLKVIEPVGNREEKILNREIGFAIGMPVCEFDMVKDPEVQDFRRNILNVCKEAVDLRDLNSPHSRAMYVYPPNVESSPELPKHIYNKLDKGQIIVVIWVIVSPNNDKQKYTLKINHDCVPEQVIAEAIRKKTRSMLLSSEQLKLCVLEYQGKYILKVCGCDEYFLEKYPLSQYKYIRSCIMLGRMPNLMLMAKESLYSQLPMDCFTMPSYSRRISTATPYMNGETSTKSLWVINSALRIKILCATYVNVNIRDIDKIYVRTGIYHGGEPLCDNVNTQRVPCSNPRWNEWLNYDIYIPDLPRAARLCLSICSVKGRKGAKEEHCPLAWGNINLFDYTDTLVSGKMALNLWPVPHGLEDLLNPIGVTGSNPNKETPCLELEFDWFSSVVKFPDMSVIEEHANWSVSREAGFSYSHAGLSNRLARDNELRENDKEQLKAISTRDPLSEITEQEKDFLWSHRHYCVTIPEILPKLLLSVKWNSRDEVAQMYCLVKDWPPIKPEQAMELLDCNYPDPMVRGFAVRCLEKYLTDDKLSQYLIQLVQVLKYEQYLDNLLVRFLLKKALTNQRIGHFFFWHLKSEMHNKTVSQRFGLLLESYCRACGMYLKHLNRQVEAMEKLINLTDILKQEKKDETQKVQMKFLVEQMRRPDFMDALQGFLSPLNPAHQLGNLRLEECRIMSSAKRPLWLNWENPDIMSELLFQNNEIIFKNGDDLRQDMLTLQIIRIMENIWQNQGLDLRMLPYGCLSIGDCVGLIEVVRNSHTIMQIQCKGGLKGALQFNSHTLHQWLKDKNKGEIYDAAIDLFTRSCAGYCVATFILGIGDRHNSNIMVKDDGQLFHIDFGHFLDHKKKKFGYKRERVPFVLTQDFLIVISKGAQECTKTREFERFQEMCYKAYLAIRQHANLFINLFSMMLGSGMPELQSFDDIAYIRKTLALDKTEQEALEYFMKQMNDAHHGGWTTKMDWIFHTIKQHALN
Sequence of PI3K p110α (P27986 whole entry partner): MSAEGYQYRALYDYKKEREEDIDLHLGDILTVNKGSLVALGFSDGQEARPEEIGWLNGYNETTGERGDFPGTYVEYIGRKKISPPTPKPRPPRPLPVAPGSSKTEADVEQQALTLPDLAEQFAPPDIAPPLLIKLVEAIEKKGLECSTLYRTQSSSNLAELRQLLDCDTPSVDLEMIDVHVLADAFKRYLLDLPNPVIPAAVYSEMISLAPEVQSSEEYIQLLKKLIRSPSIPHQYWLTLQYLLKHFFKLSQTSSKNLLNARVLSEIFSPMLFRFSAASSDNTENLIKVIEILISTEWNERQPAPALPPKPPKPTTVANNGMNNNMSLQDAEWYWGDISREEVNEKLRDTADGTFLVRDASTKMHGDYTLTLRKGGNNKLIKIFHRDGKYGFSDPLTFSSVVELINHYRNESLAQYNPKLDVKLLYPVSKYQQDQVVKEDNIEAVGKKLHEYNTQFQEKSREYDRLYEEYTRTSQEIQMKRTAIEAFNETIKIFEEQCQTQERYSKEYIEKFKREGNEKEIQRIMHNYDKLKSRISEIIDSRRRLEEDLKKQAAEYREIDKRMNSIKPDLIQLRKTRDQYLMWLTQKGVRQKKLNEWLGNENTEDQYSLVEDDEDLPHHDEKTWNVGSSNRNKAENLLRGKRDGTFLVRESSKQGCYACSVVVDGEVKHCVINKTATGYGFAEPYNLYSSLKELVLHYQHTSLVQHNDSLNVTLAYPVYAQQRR
Source text: as §1

[5] = biological target: PI3K p110δ (Homo sapiens, UniProt O00329); experiment: HTRF biochemical assay, PI3K p110δ
Sequence of PI3K p110δ (O00329 whole entry): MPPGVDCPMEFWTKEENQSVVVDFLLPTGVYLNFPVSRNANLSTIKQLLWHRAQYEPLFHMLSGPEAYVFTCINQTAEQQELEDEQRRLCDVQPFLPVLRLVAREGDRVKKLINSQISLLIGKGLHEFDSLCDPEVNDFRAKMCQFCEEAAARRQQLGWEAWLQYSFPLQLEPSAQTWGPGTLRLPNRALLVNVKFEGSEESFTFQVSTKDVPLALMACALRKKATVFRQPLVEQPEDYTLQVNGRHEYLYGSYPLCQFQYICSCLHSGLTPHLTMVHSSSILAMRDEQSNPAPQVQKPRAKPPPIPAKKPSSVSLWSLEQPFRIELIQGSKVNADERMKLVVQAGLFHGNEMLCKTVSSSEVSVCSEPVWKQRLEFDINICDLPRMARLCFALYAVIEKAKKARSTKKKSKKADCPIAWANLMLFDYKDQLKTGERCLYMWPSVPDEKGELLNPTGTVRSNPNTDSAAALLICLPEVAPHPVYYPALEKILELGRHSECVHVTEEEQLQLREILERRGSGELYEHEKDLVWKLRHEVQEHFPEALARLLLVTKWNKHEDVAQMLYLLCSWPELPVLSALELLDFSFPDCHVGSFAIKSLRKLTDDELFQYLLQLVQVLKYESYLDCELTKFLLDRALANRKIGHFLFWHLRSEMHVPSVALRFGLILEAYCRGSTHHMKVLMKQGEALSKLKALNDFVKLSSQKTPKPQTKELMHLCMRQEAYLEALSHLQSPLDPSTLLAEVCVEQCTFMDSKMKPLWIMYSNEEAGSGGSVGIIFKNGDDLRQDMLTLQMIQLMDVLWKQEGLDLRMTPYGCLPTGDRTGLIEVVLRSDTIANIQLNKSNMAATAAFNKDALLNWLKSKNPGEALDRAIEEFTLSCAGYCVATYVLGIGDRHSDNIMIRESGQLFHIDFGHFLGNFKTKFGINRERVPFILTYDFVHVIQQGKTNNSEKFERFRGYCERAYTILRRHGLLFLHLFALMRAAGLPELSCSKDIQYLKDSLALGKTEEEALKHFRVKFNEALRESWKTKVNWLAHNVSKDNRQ
Sequence of PI3K p110δ (P27986 whole entry partner): as the sequence (P27986 whole entry partner) above
Source text: as §1

[6] = biological target: PI3K p110γ (Homo sapiens, UniProt P48736); experiment: HTRF biochemical assay, PI3K p110γ
Sequence of PI3K p110γ (P48736 whole entry): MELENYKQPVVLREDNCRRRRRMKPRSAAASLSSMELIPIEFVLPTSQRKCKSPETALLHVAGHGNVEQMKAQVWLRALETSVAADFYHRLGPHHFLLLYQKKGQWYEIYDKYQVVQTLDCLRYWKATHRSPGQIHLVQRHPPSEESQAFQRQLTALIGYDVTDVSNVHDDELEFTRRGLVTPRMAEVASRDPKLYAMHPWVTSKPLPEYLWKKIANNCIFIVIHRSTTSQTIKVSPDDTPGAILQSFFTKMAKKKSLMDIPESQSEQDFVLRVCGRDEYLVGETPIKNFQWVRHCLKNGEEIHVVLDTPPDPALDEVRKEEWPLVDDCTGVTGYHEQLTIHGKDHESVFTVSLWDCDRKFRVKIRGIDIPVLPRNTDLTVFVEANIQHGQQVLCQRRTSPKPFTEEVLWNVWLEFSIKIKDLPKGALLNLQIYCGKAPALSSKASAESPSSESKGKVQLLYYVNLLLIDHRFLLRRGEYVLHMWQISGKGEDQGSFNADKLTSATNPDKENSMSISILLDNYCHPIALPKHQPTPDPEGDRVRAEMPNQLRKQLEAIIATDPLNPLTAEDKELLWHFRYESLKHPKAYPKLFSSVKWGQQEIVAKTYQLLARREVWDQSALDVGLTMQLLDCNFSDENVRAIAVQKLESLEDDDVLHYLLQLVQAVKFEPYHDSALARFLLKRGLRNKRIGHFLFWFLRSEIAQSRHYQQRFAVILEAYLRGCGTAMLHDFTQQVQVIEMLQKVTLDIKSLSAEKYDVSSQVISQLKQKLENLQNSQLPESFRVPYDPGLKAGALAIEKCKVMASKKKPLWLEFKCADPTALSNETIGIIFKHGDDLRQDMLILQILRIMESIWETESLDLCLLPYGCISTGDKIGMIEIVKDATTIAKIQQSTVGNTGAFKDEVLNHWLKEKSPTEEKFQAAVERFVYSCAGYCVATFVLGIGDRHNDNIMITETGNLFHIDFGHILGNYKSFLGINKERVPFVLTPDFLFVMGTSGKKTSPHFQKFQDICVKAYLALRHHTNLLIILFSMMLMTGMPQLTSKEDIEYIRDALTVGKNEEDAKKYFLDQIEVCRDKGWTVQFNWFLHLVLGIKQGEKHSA
Source text: as §1

[7] = biological target: PI3K p110β (Homo sapiens, UniProt P42338); experiment: HTRF biochemical assay, PI3K p110β
Sequence of PI3K p110β (P42338 whole entry): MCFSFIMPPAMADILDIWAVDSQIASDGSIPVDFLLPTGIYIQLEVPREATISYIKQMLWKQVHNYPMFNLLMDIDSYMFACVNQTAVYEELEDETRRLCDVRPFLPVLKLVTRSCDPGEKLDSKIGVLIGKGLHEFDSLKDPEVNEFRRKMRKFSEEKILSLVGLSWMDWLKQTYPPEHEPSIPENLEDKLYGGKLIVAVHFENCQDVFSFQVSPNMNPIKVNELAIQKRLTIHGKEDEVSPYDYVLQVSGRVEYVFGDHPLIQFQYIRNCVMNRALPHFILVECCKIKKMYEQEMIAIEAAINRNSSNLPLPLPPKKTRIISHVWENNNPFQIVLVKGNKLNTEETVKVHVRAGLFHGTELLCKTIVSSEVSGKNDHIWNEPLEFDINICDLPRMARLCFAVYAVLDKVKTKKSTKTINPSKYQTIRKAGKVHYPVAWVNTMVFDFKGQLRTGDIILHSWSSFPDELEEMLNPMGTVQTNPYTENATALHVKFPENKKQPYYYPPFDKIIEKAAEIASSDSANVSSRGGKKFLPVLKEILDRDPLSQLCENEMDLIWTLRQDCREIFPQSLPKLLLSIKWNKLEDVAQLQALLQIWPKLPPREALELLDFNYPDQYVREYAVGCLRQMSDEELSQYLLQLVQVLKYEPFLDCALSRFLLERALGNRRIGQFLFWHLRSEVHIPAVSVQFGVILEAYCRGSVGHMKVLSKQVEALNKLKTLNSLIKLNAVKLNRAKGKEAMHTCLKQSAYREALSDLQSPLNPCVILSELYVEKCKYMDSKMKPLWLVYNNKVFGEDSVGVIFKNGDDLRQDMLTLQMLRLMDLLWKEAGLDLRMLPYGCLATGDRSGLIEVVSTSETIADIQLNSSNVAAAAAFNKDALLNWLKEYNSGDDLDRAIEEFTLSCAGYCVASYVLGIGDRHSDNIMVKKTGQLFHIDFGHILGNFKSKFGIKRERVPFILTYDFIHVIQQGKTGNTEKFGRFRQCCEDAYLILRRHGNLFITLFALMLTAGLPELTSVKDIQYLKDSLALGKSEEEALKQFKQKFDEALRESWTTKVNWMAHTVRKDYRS
Sequence of PI3K p110β (P27986 whole entry partner): as the sequence (P27986 whole entry partner) above
Source text: as §1

[8] = plasma, iv, 5 mg/kg, 5 mg/kg I.V., summary
[9] = plasma, iv, 5 mg/kg, Mesylate Salt
[10] = plasma, po, 10 mg/kg, Mesylate Salt
[11] = plasma, IV, 5 mg/kg, Mesylate Salt, read-out: Tmax
[12] = plasma, PO, 10 mg/kg, Mesylate Salt, read-out: Tmax
[13] = plasma, oral, 10 mg/kg P.O. and 5 mg/kg I.V., rounded summary in text, read-out: Oral bioavailability (F)
[14] = plasma, po, 10 mg/kg, summary table, unit inferred, read-out: Oral Bioavailability (F)
[15] = oral, 10 mg/kg P.O. and 3 mg/kg I.V., read-out: Oral bioavailability (F)
[16] = po, 10 mg/kg, summary table, unit inferred, read-out: Oral Bioavailability (F)

## c1cc(-c2nc(N3CCOCC3)c3oc4ncc(CN5C[C@@H]6C[C@H]5CO6)cc4c3n2)c2cc[nH]c2c1 [Example A, 4-(1H-Indol-4-yl)-6-(morpholin-4-yl)-12-[(1S,4S)-2-oxa-5-azabicyclo[2.2.1]heptan-5-ylmethyl]-8-oxa-3,5,10-triazatricyclo[7.4.0.0^2,7]trideca-1(13),2(7),3,5,9,11-hexaene]
[1]; PO, 10 mg/kg, Mesylate Salt
  F: 73.77%
[1]; [8]
  clearance: 21 mL/min/kg
[1]; [9]
  AUC: 3900 ng·h/mL
  AUC(0-inf): 3950 ng·h/mL
  AUC(0-t): 3900 ng·h/mL
  Cmax: 2640 ng/mL
  Vd: 2.44 L/kg
  clearance: 21.1 mL/min/kg
  half-life: 1.3 h
[1]; [10]
  AUC: 5620 ng·h/mL
  AUC(0-inf): 5820 ng·h/mL
  AUC(0-t): 5620 ng·h/mL
  Cmax: 1970 ng/mL
  half-life: 1.3 h
[1]; [11]
  Tmax: 0.08 h
[1]; [12]
  Tmax: 1 h
[1]; [13]
  bioavailability: 74%
[1]; [14]
  bioavailability: 74%

## c1cc(-c2nc(N3CCOCC3)c3oc4ncc(CN5CCC6(CC5)COC6)cc4c3n2)c2cc[nH]c2c1 [Example B, 4-(1H-Indol-4-yl)-6-(morpholin-4-yl)-12-{2-oxa-7-azaspiro[3.5]nonan-7-ylmethyl}-8-oxa-3,5,10-triazatricyclo[7.4.0.027]trideca-1(13),2(7),3,5,9,11-hexaene]
[2]
  Fold IC50 p110β/p110α: ** (** = ≥50x)
  Fold IC50 p110β/p110γ: ** (** = ≥50x)
  Fold IC50 p110δ/p110α: ** (** = ≥50x)
  Fold IC50 p110δ/p110γ: ** (** = ≥50x)
[3]; PO, 10 mg/kg, Mesylate Salt
  F: 74%
  AUC(0-inf): 4100 ng·h/mL
  AUC(0-t): 3730 ng·h/mL
  Cmax: 780 ng/mL
  Tmax: 1 h
[3]; 3 mg/kg, 3 mg/kg I.V., summary
  clearance: 33 mL/min/kg
[3]; 3 mg/kg, Mesylate Salt
  clearance: 33.1 mL/min/kg
[3]; IV, 3 mg/kg, Mesylate Salt
  AUC(0-inf): 1510 ng·h/mL
  AUC(0-t): 1510 ng·h/mL
  Cmax: 621 ng/mL
  half-life: 1.23 h
  Vd: 5.51 L/kg
[3]; [15]
  bioavailability: 74%
[3]; [16]
  bioavailability: 74%

## CN1CCC2(CCN(Cc3cnc4oc5c(N6CCOCC6)nc(-c6cccc7[nH]ccc67)nc5c4c3)CC2)C1 [Example D, 4-(1H-Indol-4-yl)-12-({2-methyl-2,8-diazaspiro[4.5]decan-8-yl}methyl)-6-(morpholin-4-yl)-8-oxa-3,5,10-triazatricyclo[7.4.0.0^2,7]trideca-1(13),2(7),3,5,9,11-hexaene]
[2]
  Fold IC50 p110β/p110α: ** (** = ≥50x)
  Fold IC50 p110β/p110γ: ** (** = ≥50x)
  Fold IC50 p110δ/p110α: ** (** = ≥50x)
  Fold IC50 p110δ/p110γ: ** (** = ≥50x)

## CN1CCC2(CCN(Cc3cnc4oc5c(N6CCOCC6)nc(-c6cccc7[nH]ccc67)nc5c4c3)C2)C1 (centres unmarked) [Example E, 4-(1H-Indol-4-yl)-12-({7-methyl-2,7-diazaspiro[4.4]nonan-2-yl}methyl)-6-(morpholin-4-yl)-8-oxa-3,5,10-triazatricyclo[7.4.0.0^2,7]trideca-1(13),2(7),3,5,9,11-hexaene]
[2]
  Fold IC50 p110β/p110α: ** (** = ≥50x)
  Fold IC50 p110β/p110γ: ** (** = ≥50x)
  Fold IC50 p110δ/p110α: ** (** = ≥50x)
  Fold IC50 p110δ/p110γ: ** (** = ≥50x)

## c1cc(-c2nc(N3CCOCC3)c3oc4ncc(CN5CCC56COC6)cc4c3n2)c2cc[nH]c2c1 [Example G, 4-(1H-indol-4-yl)-6-(morpholin-4-yl)-12-{6-oxa-1-azaspiro[3.3]heptan-1-ylmethyl}-8-oxa-3,5,10-triazatricyclo[7.4.0.0^2,7]trideca-1(13),2(7),3,5,9,11-hexaene]
[4]
  IC50: ≤ 500 nM
[5]
  IC50: ≤ 500 nM
[6]
  IC50: 500 to 1000 nM
[7]
  IC50: ≤ 500 nM
[3]; PO, 10 mg/kg, Mesylate Salt
  F: 30%
  AUC(0-inf): 2140 ng·h/mL
  AUC(0-t): 1890 ng·h/mL
  Cmax: 833 ng/mL
  Tmax: 0.25 h
[3]; 3 mg/kg, 3 mg/kg I.V., summary
  clearance: 26 mL/min/kg
[3]; 3 mg/kg, Mesylate Salt
  clearance: 25.8 mL/min/kg
[3]; IV, 3 mg/kg, Mesylate Salt
  AUC(0-inf): 1940 ng·h/mL
  AUC(0-t): 1920 ng·h/mL
  Cmax: 2210 ng/mL
  half-life: 0.59 h
  Vd: 1.25 L/kg
[3]; [15]
  bioavailability: 30%
[3]; [16]
  bioavailability: 30%

## c1cc(-c2nc(N3CCOCC3)c3oc4ncc(CN5CCCCC5)cc4c3n2)c2cc[nH]c2c1 [Example I in WO2011/021038]
[1]; IV, 5 mg/kg, HCl Salt
  Tmax: 0.08 h
[1]; PO, 10 mg/kg, HCl Salt
  F: 29.6%
  Tmax: 1.0 h
[1]; PO, 10 mg/kg, Mesylate Salt
  F: 27.8%
[1]; [8]
  clearance: 66 mL/min/kg
[1]; plasma, iv, 5 mg/kg, HCl Salt
  AUC: 1480 ng·h/mL
  AUC(0-inf): 1520 ng·h/mL
  AUC(0-t): 1480 ng·h/mL
  Cmax: 1710 ng/mL
  Vd: 10.1 L/kg
  clearance: 55 mL/min/kg
  half-life: 7.6 h
[1]; [9]
  AUC: 1240 ng·h/mL
  AUC(0-inf): 1260 ng·h/mL
  AUC(0-t): 1240 ng·h/mL
  Cmax: 1620 ng/mL
  Vd: 4.6 L/kg
  clearance: 66.1 mL/min/kg
  half-life: 1.6 h
[1]; plasma, po, 10 mg/kg, HCl Salt
  AUC: 849 ng·h/mL
  AUC(0-inf): 896 ng·h/mL
  AUC(0-t): 849 ng·h/mL
  Cmax: 322 ng/mL
  half-life: 1.8 h
[1]; [10]
  AUC: 657 ng·h/mL
  AUC(0-inf): 700 ng·h/mL
  AUC(0-t): 657 ng·h/mL
  Cmax: 212 ng/mL
  half-life: 1.9 h
[1]; [11]
  Tmax: 0.08 h
[1]; [12]
  Tmax: 1 h
[1]; [13]
  bioavailability: 28%
[1]; [14]
  bioavailability: 28%
